Source: PubChem BioAssay (NCI)
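Five compound concentrations were applied to cells in 96-well plates for 48 hours; endpoints were derived by simple linear interpolation of the resulting dose-response curve. At the GI50, growth is halved. TGI: concentration producing complete growth inhibition.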

How the values were obtained:
Experiment in all cases: NCI anticancer screen, dose series, 48 h
[1] = tested on: DLD-1 colon
[2] = tested on: KM20L2 colon
[3] = tested on: LXFL 529 NSCLC
[4] = tested on: M19-MEL melanoma
[5] = tested on: MCF7 breast
[6] = tested on: NCI/ADR-RES ovarian

| SMILES | TGI [1] | TGI [2] | TGI [3] | TGI [4] | TGI [5] | TGI [6] | GI50 [1] | GI50 [2] | GI50 [4] |
| --- | --- | --- | --- | --- | --- | --- | --- | --- | --- |
| CNC(=O)OCc1nc(SC(C)C)n(C)c1COC(=O)NC | > 100 µM | > 100 µM | > 100 µM | > 100 µM | > 100 µM | > 100 µM |  |  |  |
| COc1c(OC(C)=O)ccc(/C=C2\N=C(C)OC2=O)c1[N+](=O)[O-] | > 100 µM | > 100 µM | > 100 µM | > 100 µM |  |  |  |  |  |
| CC(=O)Oc1c(C)n(CCCl)ccc1=O | > 100 µM | > 100 µM | > 100 µM | > 100 µM |  |  |  |  |  |
| O=C(Cc1ccccc1)NN1C(=O)C(Cl)C1c1cccc(O)c1 (stereo unspecified) | 31.1 µM | 32.2 µM | 22.8 µM | 35.8 µM |  |  |  |  |  |
| CCCCN(CCCC)C(=O)C(=O)CC(=O)c1ccc(Br)cc1 | > 100 µM | > 100 µM | > 100 µM | > 100 µM |  |  |  |  |  |
| O/N=C1/C(=C/c2ccc(F)cc2)CCCC1C(NO)c1ccc(F)cc1 (stereo unspecified) | > 100 µM | 72.2 µM | > 100 µM | > 100 µM |  |  |  |  |  |
| CC(C)=CC(=O)CC(=O)C(=O)Nc1ccc(C)c(C)c1 | > 100 µM | > 100 µM | > 100 µM | > 100 µM |  |  |  |  |  |
| CCOC(=O)/N=c1\ss/c(=N\C(=S)N(C)C)n1-c1ccccc1 | > 100 µM | > 100 µM | > 100 µM |  |  |  | > 100 µM | > 100 µM | > 100 µM |
| CCOC(=O)/C(C1=N[C@H](C(=O)OCC)CS1)=C(\C)O | > 100 µM | > 100 µM | > 100 µM | > 100 µM |  |  |  |  |  |
| O=C(O)CN(c1ccc(Cl)cc1)S(=O)(=O)c1ccccc1 | > 100 µM | > 100 µM | > 100 µM | > 100 µM |  |  |  |  |  |
| N[C@H]1C2C3CC4C5CC(C42)C1(c1ccccc1)C53 (stereo partly specified) | > 100 µM | > 100 µM | > 100 µM | > 100 µM |  |  |  |  |  |
| Cc1cc(Br)cc(C)c1NC(=O)C(=O)CC(=O)c1sc(-n2nc(-c3ccccc3)cc2-c2ccccc2)nc1C | > 100 µM | > 100 µM | > 100 µM | > 100 µM |  |  |  |  |  |
| Cc1c(NC(=O)C(=O)N=NC(=O)c2ccncc2)c(O)c2ccccc2c1O | 31.6 µM | 70.3 µM | 28.2 µM | 3.23 µM |  |  |  |  |  |
